Experimental data taken from publication PMC7277541, “Antimicrobial and Antifungal Activities of Terpene-Derived Palladium Complexes” (Antibiotics, 2020).
Converted amounts (≈) assume the structure as drawn. “And” between values parts separate entries of the source, which are not always exact repeats. Identical values can stand only once.

What was measured:
[1] = system: C. neoformans var. grubii H99 ATCC 208821; assay: Antifungal MIC assay, C. neoformans; type: cell-based, Cryptococcus neoformans; settings: 35 °C, 36 h, resazurin, growth inhibited ≥ 80%, range tested 0.25 to 32 μg/mL; for Minimum inhibitory concentration (MIC) C. neoformans ATCC 208821: YNB, n = 2
Procedure: Screening against bacteria and yeasts for antimicrobial activity and toxicity against mammalian cells was performed in duplicate (n = 2). […] Becton Dickinson 242720) agar at 30 °C. A yeast suspension of 1 × 10^6 to 5 × 10^6 CFU/mL (as determined by OD530) was prepared from five colonies form the agar plates, and subsequently diluted with Yeast Nitrogen Base media (YNB; Becton Dickinson 233520), and added to each well of the compound containing plates (384-well plates, NBS; […] Plates were covered and incubated at 35 °C for 36 h without shaking. […] Fluconazole (Sigma Aldrich, F8929) was used as a positive inhibitor control on each plate for both strains.

[2] = system: S. aureus (MRSA) ATCC 43300; assay: Antibacterial MIC assay, S. aureus (MRSA); type: cell-based, Staphylococcus aureus; settings: CAMHB, 18 h, growth inhibited by ≥ 80%, range tested 0.25 to 32 μg/mL, n = 2
Procedure: (§1) Dry compounds were dissolved in dimethyl sulfoxide (DMSO), and serially diluted 2-fold to produce an 8-point dose response with DMSO/water and then added into microtiter plates with a final DMSO concentration of 0.5%, providing a concentration range of 0.25 to 32 μg/mL. Screening against bacteria and yeasts for antimicrobial activity and toxicity against mammalian cells was performed in duplicate (n = 2).
For the bacterial assays, each bacterial strain was cultured in Cation-Adjusted Mueller Hinton Broth (CAMHB; Bacto Laboratories 212322) at 37 °C overnight. Bacterial strains tested were methicillin resistant S. aureus (methicillin-resistant Staphylococcus aureus - MRSA) ATCC 43300, E. coli ATCC 25922, K. pneumoniae K6/ESBL ATCC 700603, P. aeruginosa ATCC 27853, A. baumannii ATCC 19606. A sample of each culture was then diluted 40-fold in fresh CAMHB and incubated at 37 °C for 1.5–3 h. The resultant mid-log phase cultures were diluted with CAMHB (CFU/mL measured by OD600), then added to each well of the compound-containing plates (384-well non-binding surface (NBS) plates; Corning CLS3640), giving a final cell density of 5 × 10^5 CFU/mL and a total volume of 50 μL. Plates were covered and incubated at 37 °C for 18 h without shaking. Inhibition of bacterial growth was determined by measuring absorbance at 600 nm (OD600), using media only as negative control and bacteria without inhibitors as positive control. MIC values were determined as the lowest concentration at which the growth was inhibited by ≥ 80% (equivalent to no visible growth by eye). Colistin sulfate (Sigma Aldrich, Castle Hill, Australia C4461) and vancomycin HCl (Sigma Aldrich, 861987) were used as positive inhibitor controls on each plate for Gram-negative and Gram-positive bacteria, respectively.

[3] = system: human embryonic kidney cells (HEK293, ATCC CRL-1573); assay: Cytotoxicity assay (resazurin); type: cell-based; settings: HEK293, 20 h incubation
Procedure: Screening against bacteria and yeasts for antimicrobial activity and toxicity against mammalian cells was performed in duplicate (n = 2). […] HEK293 cells were counted manually in a Neubauer hemocytometer and added to compound-containing plates (384-well plates, tissue culture treated (TC); Corning CLS3712) giving a final density of 5000 cells/well in a total volume of 50 μL, using Dulbecco's Modified Eagle Medium (DMEM; Life Technologies 11995-073) with 10% Fetal Bovine Serum (FBS; GE SH30084.03). […] Sigma R7017) and after further incubation for 3 h at 37 °C in 5% CO2. Media only was used as negative control and cells without inhibitors as positive growth control. CC50 (concentration at 50% cytotoxicity) values were calculated by curve fitting the inhibition values vs. log(concentration) using a sigmoidal dose-response function, with variable fitting values for bottom, top and slope. Tamoxifen (Sigma Aldrich, Australia T5648) was used as positive inhibitor control on each plate. Selectivity indices (SI) were calculated by dividing the CC50 value (μg/mL) by the MIC value (μg/mL) for a given bacterial or fungal strain.

C. albicans ATCC 90028 = assay: Antifungal MIC assay, C. albicans; type: cell-based, Candida albicans; settings: YNB, 35 °C, 36 h, growth inhibited ≥ 80%; range tested 0.25 to 32 μg/mL; n = 2
Procedure: as §1, with “All screened compounds were > 95% purity as determined by NMR. Dry” for “Dry”
For the fungal assays, yeast strains C. neoformans var. grubii H99 ATCC 208821 and C. albicans ATCC 90028 were cultured for 3 days on Yeast Extract-Peptone Dextrose (YPD; Becton Dickinson 242720) agar at 30 °C. A yeast suspension of 1 × 10^6 to 5 × 10^6 CFU/mL (as determined by OD530) was prepared from five colonies form the agar plates, and subsequently diluted with Yeast Nitrogen Base media (YNB; Becton Dickinson 233520), and added to each well of the compound containing plates (384-well plates, NBS; Corning CLS3640) giving a final cell density of 2.5 × 10^3 CFU/mL and a total volume of 50 μL. Plates were covered and incubated at 35 °C for 36 h without shaking. Growth inhibition of C. albicans was determined measuring absorbance at 630 nm (OD630), while the growth inhibition of C. neoformans was determined measuring the difference in absorbance between 600 and 570 nm (OD600-570), after the addition of resazurin (0.001% final concentration; Sigma R7017) and incubation at 35 °C for 2 h, using media only as negative control and fungi without inhibitors as positive control. MIC values were determined as the lowest concentration at which the growth was inhibited at ≥ 80% (equivalent to no visible growth by eye). Fluconazole (Sigma Aldrich, F8929) was used as a positive inhibitor control on each plate for both strains.

[4] = system: human red blood cells (HRBC); assay: Haemolysis assay; type: cell-based; settings: 1 h at 37 °C
Procedure: as §1, with “All screened compounds were > 95% purity as determined by NMR. Dry” for “Dry”
Hemolytic activity was assessed against human red blood cells (HRBC), with data presented as HC10, corresponding to the concentration of the compound causing 10% hemolysis. Human whole blood (Australian Red Cross) was washed three times with 3 volumes of 0.9% NaCl and resuspended in a concentration of 0.5 × 10^8 cells/mL, determined by manual cell count in a Neubauer hemocytometer. Washed cells were added to compound containing plates (384-well polypropylene plates (PP); Corning 3657) for a final volume of 50 μL. The plate was shaken with incubation for 1 h at 37 °C. After incubation, the plates were centrifuged at 1000× g for 10 min to pellet cells and debris. Supernatant (25 μL) was then transferred to reading plates (384-well, polystyrene plated (PS), Corning CLS3680), with hemolysis determined by measuring the supernatant absorbance at […] (OD405), using cells without inhibitors as negative control and cells with 1% Triton X-100 (Sigma T8787) as positive control. HC10 and HC50 (concentration at 10% and 50% hemolysis, respectively) were calculated by curve fitting the inhibition values vs. log(concentration) using a sigmoidal dose-response function with variable fitting values for top, bottom and slope. Melittin (Sigma M2272) was used as positive hemolytic control on each plate. Human blood was sourced from the Australian Red Cross Blood Service. Selectivity indices (SI) were calculated by dividing the HC10 value (μg/mL) by the MIC value (μg/mL) for a given bacterial or fungal strain.

Structure (SMILES)	Minimum inhibitory concentration (MIC) C. neoformans ATCC 208821 [1]	Minimum inhibitory concentration (MIC) S. aureus ATCC 43300 [2] [µg/mL]	CC50 (concentration of 50% cytotoxicity) [3] [µg/mL]	Minimum inhibitory concentration (MIC) C. albicans ATCC 90028 (C. albicans ATCC 90028)	HC10 (concentration of 10% haemolysis) [4] [µg/mL]	MIC ([1]; Cryptococcus neoformans, ATCC208821, YNB, n = 2, read-out: Minimum inhibitory concentration (MIC) C. neoformans ATCC 208821) [µg/mL]
C[C@H](N=C1C[C@H]2C[C@H](C2(C)C)[C@@]1(C)O)c1cccc[c]1[Pd][Cl].C[C@H](N=C1C[C@H]2C[C@H](C2(C)C)[C@@]1(C)O)c1cccc[c]1[Pd][Cl] [Compound 1]	0.5 µg/mL	4	11.9	1 µg/mL	3.9	
CC12CCC(C(=NC(c3ccccc3)c3cccc[c]3[Pd][Cl])C1=O)C2(C)C.CC12CCC(C(=NC(c3ccccc3)c3cccc[c]3[Pd][Cl])C1=O)C2(C)C (centres unmarked) [Compound 3]	0.5 µg/mL	16	6.0	2 µg/mL		
C[C@H](N[C@@H]1C[C@H]2C[C@H](C2(C)C)[C@@]1(C)O)c1cccc[c]1[Pd][Cl].C[C@H](N[C@@H]1C[C@H]2C[C@H](C2(C)C)[C@@]1(C)O)c1cccc[c]1[Pd][Cl] [Compound 4]		32	16.6			
C[C@H](N[C@@H]1C[C@H]2C[C@H](C2(C)C)[C@@]1(C)O)c1cccc[c]1[Pd]([Cl])[P](c1ccccc1)(c1ccccc1)c1ccccc1 [Compound 5, (+)-trans-Chloro{(1R,2R,3R,5R)-3-((S)-1′-phenylethylamino)-2,6,6-trimethylbicyclo[3.1.1]heptane-2-ol-C,N}(triphenylphosphine)palladium(II)]	1 µg/mL	16	2.9	2 µg/mL	5.6	
CC(C)(C)c1cc(C=NCCN=C2C[C@H]3C[C@H](C3(C)C)[C@@]2(C)O)c([O][Pd][Cl])c(C(C)(C)C)c1 [Compound 6]	4—16 μg/mL and 4 μg/mL	8	4.5	4—16 μg/mL and 8 μg/mL		
CC12CCC(CC1=NCCN=Cc1ccccc1[O][Pd][Cl])C2(C)C (centres unmarked) [Compound 7]	4—16 μg/mL and 4 μg/mL	>32	>32			
CC1(C)[C@H]2CC(=NCCN)[C@](C)(O)[C@@H]1C2.[Cl][Pd][Cl] [Compound 8]	2—4 μg/mL and 4 μg/mL	>32	>32	8—16 μg/mL and 8 μg/mL		
CN(C)CCN=C1C[C@H]2C[C@H](C2(C)C)[C@@]1(C)O.[Cl][Pd][Cl] [Compound 9]	2—4 μg/mL and 2 μg/mL	>32	>32	8—16 μg/mL and 16 μg/mL		
CC1(C)[C@@H]2C[C@H]1[C@@](C)(O)[C@H](NCCN[C@@H]1C[C@H]3C[C@H](C3(C)C)[C@@]1(C)O)C2.[Cl][Pd][Cl] [Compound 10]	4 µg/mL	>32	>32	4 µg/mL		
CN(C)CCN=CC1=CCC2CC1C2(C)C.[Cl][Pd][Cl] (centres unmarked) [Compound 11]		>32	10.8			
CN(C)CCNCC1=CCC2CC1C2(C)C.[Cl][Pd][Cl] (centres unmarked) [Compound 12]			>32	2 µg/mL		
OC(Cn1cncn1)(Cn1cncn1)c1ccc(F)cc1F [fluconazole, Fluconazole, reference compound]						8 (≈ 26.1 µM)
CC[C@H](C)[C@H](NC(=O)CN)C(=O)NCC(=O)N[C@@H](C)C(=O)N[C@H](C(=O)N[C@@H](CC(C)C)C(=O)N[C@@H](CCCCN)C(=O)N[C@H](C(=O)N[C@@H](CC(C)C)C(=O)N[C@H](C(=O)N[C@H](C(=O)NCC(=O)N[C@@H](CC(C)C)C(=O)N1CCC[C@H]1C(=O)N[C@@H](C)C(=O)N[C@@H](CC(C)C)C(=O)N[C@H](C(=O)N[C@@H](CO)C(=O)N[C@@H](Cc1c[nH]c2ccccc12)C(=O)N[C@H](C(=O)N[C@@H](CCCCN)C(=O)N[C@@H](CCCNC(=N)N)C(=O)N[C@@H](CCCCN)C(=O)N[C@@H](CCCNC(=N)N)C(=O)N[C@@H](CCC(N)=O)C(=O)N[C@@H](CCC(N)=O)C(N)=O)[C@@H](C)CC)[C@@H](C)CC)[C@@H](C)O)[C@@H](C)O)C(C)C)C(C)C [melittin, Melittin, reference compound]					2.7	
